Our source for the activity coefficient values is the NIST ThermoML archive (doi:10.1016/j.jct.2010.12.020).

Several values for one entry are separate records, joined by “and”; a condition that tells them apart may be missing. Identical values can stand only once. ± gives the expanded uncertainty stated by the source.

A short description of this data set: activity coefficient (dimensionless); of the first substance listed, at infinite dilution; xn = mol fraction of the nth substance listed. The conditions noted are these: 101 kPa, Liquid, Chromatography, x1 = 0.

`Cc1ccccc1` [toluene] + CCCCCCCC[N+](C)(CCCCCCCC)CCCCCCCC.O=C(O)c1ccccc1[S-]: the activity coefficient reads like this: (303.15 K) 0.62 and 0.59; (313.15 K) 0.62 and 0.59; (323.15 K) 0.62 and 0.58.

`C=CCCC` [1-pentene] + CCCCCCCC[N+](C)(CCCCCCCC)CCCCCCCC.O=C(O)c1ccccc1[S-]: the activity coefficient runs as follows: (303.15 K) 1.39 and 1.4; (313.15 K) 1.36 ± 0.17; (323.15 K) 1.33 and 1.28.

As for `CCCCCCCC` [octane] + CCCCCCCC[N+](C)(CCCCCCCC)CCCCCCCC.O=C(O)c1ccccc1[S-], the activity coefficient was 2.77 and 2.72 (303.15 K); 2.68 and 2.61 (313.15 K); 2.55 and 2.47 (323.15 K).

For the molecule `C=CCCCCCC` [oct-1-ene] + CCCCCCCC[N+](C)(CCCCCCCC)CCCCCCCC.O=C(O)c1ccccc1[S-], the activity coefficient reads like this: (303.15 K) 2.09 and 2.06; (313.15 K) 2.06 and 2.02; (323.15 K) 2 and 1.93.

Turning to `C1CCCCCC1` [cycloheptane] + CCCCCCCC[N+](C)(CCCCCCCC)CCCCCCCC.O=C(O)c1ccccc1[S-], the activity coefficient is, setting by setting: (303.15 K) 1.42 and 1.4; (313.15 K) 1.36 and 1.32; (323.15 K) 1.31 and 1.25.

For the molecule `C1CCCCCCC1` [cyclooctane] + CCCCCCCC[N+](C)(CCCCCCCC)CCCCCCCC.O=C(O)c1ccccc1[S-], the activity coefficient (303.15 K) stood at 1.57 ± 0.19; the activity coefficient (313.15 K) was 1.5 and 1.45; the activity coefficient (323.15 K) was 1.44 and 1.37.

In the case of `CCCCC` [pentane] + CCCCCCCC[N+](C)(CCCCCCCC)CCCCCCCC.O=C(O)c1ccccc1[S-], the activity coefficient reads like this: (303.15 K) 1.81 ± 0.22; (313.15 K) 1.75 ± 0.22; (323.15 K) 1.7 and 1.65.

Consider `C1CCCCC1` [cyclohexane] + CCCCCCCC[N+](C)(CCCCCCCC)CCCCCCCC.O=C(O)c1ccccc1[S-], for which the activity coefficient (303.15 K) was 1.34 and 1.32; the activity coefficient (313.15 K) is 1.28 and 1.26; the activity coefficient (323.15 K) is 1.23 and 1.19.

In the case of `C#CCCC` [1-pentyne] + CCCCCCCC[N+](C)(CCCCCCCC)CCCCCCCC.O=C(O)c1ccccc1[S-], the activity coefficient (303.15 K) came to 0.63 ± 0.08, the activity coefficient (313.15 K) worked out at 0.65 ± 0.08 and the activity coefficient (323.15 K) was determined as 0.67 ± 0.08.

With `C#CCCCC` [1-hexyne] + CCCCCCCC[N+](C)(CCCCCCCC)CCCCCCCC.O=C(O)c1ccccc1[S-], the activity coefficient was 0.7 and 0.69 (303.15 K); 0.72 ± 0.09 (313.15 K); 0.75 ± 0.09 (323.15 K).

On to `CC(C)=O` [acetone] + CCCCCCCC[N+](C)(CCCCCCCC)CCCCCCCC.O=C(O)c1ccccc1[S-], for which the activity coefficient is, setting by setting: (303.15 K) 0.69 and 0.65; (313.15 K) 0.66 and 0.63; (323.15 K) 0.64 and 0.61.

Take `c1ccccc1` [benzene] + CCCCCCCC[N+](C)(CCCCCCCC)CCCCCCCC.O=C(O)c1ccccc1[S-]: the activity coefficient runs as follows: (303.15 K) 0.51 and 0.48; (313.15 K) 0.5 and 0.48; (323.15 K) 0.5 and 0.47.

With `C1CCCC1` [cyclopentane] + CCCCCCCC[N+](C)(CCCCCCCC)CCCCCCCC.O=C(O)c1ccccc1[S-], the activity coefficient runs as follows: (303.15 K) 1.1 and 1.08; (313.15 K) 1.07 and 1.05; (323.15 K) 1.04 and 1.

In the case of `C#CCCCCCC` [1-octyne] + CCCCCCCC[N+](C)(CCCCCCCC)CCCCCCCC.O=C(O)c1ccccc1[S-], the activity coefficient (303.15 K) was 0.88 and 0.84; the activity coefficient (313.15 K) is 0.92 and 0.9; the activity coefficient (323.15 K) was determined as 0.94 ± 0.11.

With `CCCCCCCCC` [nonane] + CCCCCCCC[N+](C)(CCCCCCCC)CCCCCCCC.O=C(O)c1ccccc1[S-], the activity coefficient by setting is: (303.15 K) 3.21 and 3.11; (313.15 K) 3.07 and 3.03; (323.15 K) 2.98 and 2.88.

For the molecule `CCCCCCC` [heptane] + CCCCCCCC[N+](C)(CCCCCCCC)CCCCCCCC.O=C(O)c1ccccc1[S-], the activity coefficient (303.15 K) was 2.37 and 2.28; the activity coefficient (313.15 K) is 2.29 and 2.22; the activity coefficient (323.15 K) is 2.21 and 2.15.

`C=CCCCC` [hex-1-ene] + CCCCCCCC[N+](C)(CCCCCCCC)CCCCCCCC.O=C(O)c1ccccc1[S-]: the activity coefficient runs as follows: (303.15 K) 1.57 and 1.55; (313.15 K) 1.53 and 1.51; (323.15 K) 1.51 and 1.46.

With `CCC(C)=O` [butanone] + CCCCCCCC[N+](C)(CCCCCCCC)CCCCCCCC.O=C(O)c1ccccc1[S-], the activity coefficient runs as follows: (303.15 K) 0.66 and 0.62; (313.15 K) 0.64 and 0.61; (323.15 K) 0.62 and 0.59.

On to `CCCCCC` [hexane] + CCCCCCCC[N+](C)(CCCCCCCC)CCCCCCCC.O=C(O)c1ccccc1[S-], for which the activity coefficient (303.15 K) was 2.07 ± 0.26; the activity coefficient (313.15 K) was 1.98 and 1.96; the activity coefficient (323.15 K) is 1.92 and 1.87.
